# Data as given in patent publication US10836768B2, “N-acyl-(3-substituted)-(8-substituted)-5,6-dihydro-[1,2,4]triazolo[4,3-a]pyrazines as selective NK-3 receptor antagonists” (OGEDA SA, priority 2013, dated 2020).
# Test: Determination of plasma protein binding (equilibrium dialysis)
# Assay type: in vitro ADME
# Conditions: bound drug fraction to plasma protein; 4 hours at 37° C.
# Text: Determination of Plasma Protein Binding
# The pharmacokinetic and pharmacodynamic properties of chemicals/drugs are largely a function of the reversible binding of chemicals to plasma or serum proteins. […] Consequently, the extent of the plasma protein binding (PPB) of a compound influences its action as well as its distribution and elimination.
# The determination of plasma protein binding (PPB) of a compound is enabled by equilibrium dialysis, an accepted and standard method for reliable estimation of the non-bound drug fraction in plasma. RED (Rapid Equilibrium Dialysis) device insert is made of two side-by-side chambers separated by an O-ring-sealed vertical cylinder of dialysis membrane (MWCO ˜8,000). […] After 4 hours incubation at 37° C. under shaking, an aliquot is removed from each chamber and analyzed by a LC-MS/MS procedure enables the determination of both free and bound drug.
# The “free fraction” may be calculated as 100%−% rPPB (i.e. the complementary percentage of that disclosed in Table 4, corresponding to the drug concentration that is unbound and therefore available to engage biological target and elicit pharmacological activity).
row,Structure (SMILES),Exposure (% rPPB) [%]
1,"Cc1nsc(-c2nnc3n2CCN(C(=O)c2cc(F)c(F)c(F)c2F)C3C)n1 (racemic) [Compound 31, (8-methyl-3-(3-methyl-1,2,4-thiadiazol-5-yl)-5,6-dihydro-[1,2,4]triazolo[4,3-a]pyrazin-7(8H)-yl)(2,3,4,5-tetrafluorophenyl)methanone]",31
2,"Cc1nsc(-c2nnc3n2CCN(C(=O)c2ccc(F)c(F)c2F)C3C)n1 (racemic) [Compound 33, (8-methyl-3-(3-methyl-1,2,4-thiadiazol-5-yl)-5,6-dihydro-[1,2,4]triazolo[4,3-a]pyrazin-7(8H)-yl)(2,3,4-trifluorophenyl)methanone]",29
3,"Cc1nsc(-c2nnc3n2CCN(C(=O)c2ccc(F)c(Cl)c2)C3C)n1 (racemic) [Compound 35, (3-chloro-4-fluorophenyl)(8-methyl-3-(3-methyl-1,2,4-thiadiazol-5-yl)-5,6-dihydro-[1,2,4]triazolo[4,3-a]pyrazin-7(8H)-yl)methanone]",52
4,"CCc1noc(-c2nnc3n2CCN(C(=O)c2ccc(F)cc2)C3C)n1 (racemic) [Compound 40, (3-(3-ethyl-1,2,4-oxadiazol-5-yl)-8-methyl-5,6-dihydro-[1,2,4]triazolo[4,3-a]pyrazin-7(8H)-yl)(4-fluorophenyl)methanone]",24
5,"Cc1nsc(-c2nnc3n2CCN(C(=O)c2ccc(F)c(Cl)c2)[C@@H]3C)n1 [Compound 6, (R)-(3-chloro-4-fluorophenyl)(8-methyl-3-(3-methyl-1,2,4-thiadiazol-5-yl)-5,6-dihydro-[1,2,4]triazolo[4,3-a]pyrazin-7(8H)-yl)methanone]",53
6,"Cc1nsc(-c2nnc3n2CCN(C(=O)c2cc(F)c(F)c(F)c2)[C@@H]3C)n1 [Compound 7, (R)-(8-methyl-3-(3-methyl-1,2,4-thiadiazol-5-yl)-5,6-dihydro-[1,2,4]triazolo[4,3-a]pyrazin-7(8H)-yl)(3,4,5-trifluorophenyl)methanone]",26

# Results, then the molecule that gave them:
row,Exposure (% rPPB) [%],Structure (SMILES)
1,21,"Cc1nsc(-c2nnc3n2CCN(C(=O)c2ccc(F)cc2)C3C)n1 (racemic) [Compound 14, (4-fluorophenyl)(8-methyl-3-(3-methyl-1,2,4-thiadiazol-5-yl)-5,6-dihydro-[1,2,4]triazolo[4,3-a]pyrazin-7(8H)-yl)methanone]"
2,34,"CCC1c2nnc(-c3nc(C)ns3)n2CCN1C(=O)c1ccc(F)cc1 (racemic) [Compound 23, (8-ethyl-3-(3-methyl-1,2,4-thiadiazol-5-yl)-5,6-dihydro-[1,2,4]triazolo[4,3-a]pyrazin-7(8H)-yl)(4-fluorophenyl)methanone]"
3,25,Cc1nsc(-c2nnc3n2CCN(C(=O)c2ccc(F)c(F)c2)C3C)n1 (racemic) [Compound 32]
4,24,"Cc1nsc(-c2nnc3n2CCN(C(=O)c2cc(F)c(F)c(F)c2)C3C)n1 (racemic) [Compound 34, (8-methyl-3-(3-methyl-1,2,4-thiadiazol-5-yl)-5,6-dihydro-[1,2,4]triazolo[4,3-a]pyrazin-7(8H)-yl)(3,4,5-trifluorophenyl)methanone]"
5,60,"Cc1nsc(-c2nnc3n2CCN(C(=O)c2ccc(Cl)c(F)c2)C3C)n1 (racemic) [Compound 36, (4-chloro-3-fluorophenyl)(8-methyl-3-(3-methyl-1,2,4-thiadiazol-5-yl)-5,6-dihydro-[1,2,4]triazolo[4,3-a]pyrazin-7(8H)-yl)methanone]"
6,76,"Cc1nsc(-c2nnc3n2CCN(C(=O)c2ccc(Cl)c(Cl)c2)C3C)n1 (racemic) [Compound 38, (3,4-dichlorophenyl)(8-methyl-3-(3-methyl-1,2,4-thiadiazol-5-yl)-5,6-dihydro-[1,2,4]triazolo[4,3-a]pyrazin-7(8H)-yl)methanone]"
7,43,"CCc1nsc(-c2nnc3n2CCN(C(=O)c2ccc(F)cc2)C3C)n1 (racemic) [Compound 39, (3-(3-ethyl-1,2,4-thiadiazol-5-yl)-8-methyl-5,6-dihydro-[1,2,4]triazolo[4,3-a]pyrazin-7(8H)-yl)(4-fluorophenyl)methanone]"
